Data as given in the NIST ThermoML archive (doi:10.1016/j.fluid.2009.06.018).
± gives the expanded uncertainty stated by the source.

Assays:
[1] = xn = mol fraction of the nth substance listed; settings: 298.15 K, 101 kPa, Liquid, Vibrating tube method
[2] = excess molar enthalpy (molar enthalpy of mixing); xn = mol fraction of the nth substance listed; settings: 298.15 K, 101 kPa, Liquid, Flow calorimetry
[3] = 298.15 K; 101.33 kPa; Liquid; Vibrating tube method
[4] = refractive index (Na D-line) (dimensionless); settings: 298.15 K; 101.33 kPa; Liquid; Standard Abbe refractometry

COCCOCCOCCO [2-[2-(2-methoxyethoxy)ethoxy]ethanol] + CC(Cl)CCl
Settings	excess molar enthalpy [kcal/mol]	mass density [kg/m3]
[1], x2 = 0.0554	–	1047.4 ± 1.9
[1], x2 = 0.1	–	1050.82 ± 1.8
[1], x2 = 0.1507	–	1054.88 ± 1.7
[1], x2 = 0.1999	–	1058.91 ± 1.6
[1], x2 = 0.2535	–	1063.43 ± 1.5
[1], x2 = 0.2977	–	1067.32 ± 1.4
[1], x2 = 0.3483	–	1071.88 ± 1.3
[1], x2 = 0.401	–	1076.8 ± 1.2
[1], x2 = 0.4512	–	1081.66 ± 1.1
[1], x2 = 0.5013	–	1086.65 ± 1
[1], x2 = 0.5522	–	1091.89 ± 0.93
[1], x2 = 0.6013	–	1097.16 ± 0.85
[1], x2 = 0.648	–	1102.3 ± 0.78
[1], x2 = 0.7005	–	1108.34 ± 0.7
[1], x2 = 0.7514	–	1114.4 ± 0.63
[1], x2 = 0.7997	–	1120.38 ± 0.57
[1], x2 = 0.8567	–	1127.98 ± 0.5
[1], x2 = 0.8993	–	1133.84 ± 0.46
[1], x2 = 0.9502	–	1141.27 ± 0.4
[2], x2 = 0.061	-0.0429 ± 0.00112	–
[2], x2 = 0.091	-0.0565 ± 0.00134	–
[2], x2 = 0.15	-0.0912 ± 0.00143	–
[2], x2 = 0.206	-0.119 ± 0.00143	–
[2], x2 = 0.26	-0.14 ± 0.00148	–
[2], x2 = 0.311	-0.1575 ± 0.00153	–
[2], x2 = 0.36	-0.1693 ± 0.00155	–
[2], x2 = 0.407	-0.1774 ± 0.00158	–
[2], x2 = 0.452	-0.1811 ± 0.0016	–
[2], x2 = 0.496	-0.1814 ± 0.0016	–
[2], x2 = 0.558	-0.1759 ± 0.00158	–
[2], x2 = 0.597	-0.1682 ± 0.00158	–
[2], x2 = 0.654	-0.1526 ± 0.00151	–
[2], x2 = 0.707	-0.133 ± 0.00146	–
[2], x2 = 0.757	-0.111 ± 0.00141	–
[2], x2 = 0.805	-0.0875 ± 0.00139	–
[2], x2 = 0.851	-0.0629 ± 0.00131	–
[2], x2 = 0.908	-0.0328 ± 0.00117	–
[2], x2 = 0.949	-0.0144 ± 0.00105	–

CCCCOCCOCCO [3,6-dioxa-1-decanol]
Settings	mass density [kg/m3]	refractive index
[3]	948.48 ± 0.78	–
[4]	–	1.42998 ± 0.00078

CCCCOCCOCCO [3,6-dioxa-1-decanol] + CC(Cl)CCl
Settings	excess molar enthalpy [kcal/mol]	mass density [kg/m3]
[1], x2 = 0.052	–	954.88 ± 0.75
[1], x2 = 0.1	–	961.07 ± 0.72
[1], x2 = 0.155	–	968.38 ± 0.69
[1], x2 = 0.1997	–	974.56 ± 0.66
[1], x2 = 0.2496	–	981.76 ± 0.63
[1], x2 = 0.3037	–	989.93 ± 0.6
[1], x2 = 0.3497	–	997.2 ± 0.58
[1], x2 = 0.4033	–	1006.02 ± 0.55
[1], x2 = 0.4504	–	1014.14 ± 0.53
[1], x2 = 0.4998	–	1023.03 ± 0.51
[1], x2 = 0.5535	–	1033.23 ± 0.49
[1], x2 = 0.6001	–	1042.57 ± 0.48
[1], x2 = 0.6494	–	1052.96 ± 0.46
[1], x2 = 0.7024	–	1064.78 ± 0.44
[1], x2 = 0.7527	–	1076.67 ± 0.43
[1], x2 = 0.8024	–	1089.22 ± 0.41
[1], x2 = 0.8488	–	1101.75 ± 0.4
[1], x2 = 0.901	–	1116.84 ± 0.38
[1], x2 = 0.9479	–	1131.48 ± 0.37
[2], x2 = 0.066	-0.039 ± 0.000932	–
[2], x2 = 0.098	-0.0499 ± 0.00103	–
[2], x2 = 0.161	-0.0736 ± 0.00115	–
[2], x2 = 0.191	-0.086 ± 0.00108	–
[2], x2 = 0.248	-0.0983 ± 0.00105	–
[2], x2 = 0.303	-0.107 ± 0.00108	–
[2], x2 = 0.355	-0.1121 ± 0.00108	–
[2], x2 = 0.404	-0.113 ± 0.00108	–
[2], x2 = 0.45	-0.1104 ± 0.00108	–
[2], x2 = 0.495	-0.105 ± 0.00108	–
[2], x2 = 0.558	-0.0936 ± 0.00103	–
[2], x2 = 0.598	-0.0852 ± 0.00105	–
[2], x2 = 0.654	-0.0686 ± 0.00103	–
[2], x2 = 0.707	-0.0514 ± 0.00098	–
[2], x2 = 0.757	-0.0343 ± 0.000932	–
[2], x2 = 0.803	-0.0186 ± 0.00086	–
[2], x2 = 0.847	-0.00454 ± 0.000741	–
[2], x2 = 0.902	0.00837 ± 0.000598	–
[2], x2 = 0.953	0.00985 ± 0.00055	–

CCCCOCCOCCOCCO [triethylene glycol monobutyl ether]
Settings	mass density [kg/m3]	refractive index
[3]	988.44 ± 350	–
[4]	–	1.43973 ± 0.006

CCCCOCCOCCOCCO [triethylene glycol monobutyl ether] + CC(Cl)CCl
Settings	excess molar enthalpy [kcal/mol]	mass density [kg/m3]
[1], x2 = 0.0919	–	996.32 ± 270
[1], x2 = 0.1463	–	1001.35 ± 230
[1], x2 = 0.2006	–	1006.67 ± 200
[1], x2 = 0.2501	–	1011.79 ± 170
[1], x2 = 0.3036	–	1017.68 ± 150
[1], x2 = 0.3548	–	1023.63 ± 120
[1], x2 = 0.4015	–	1029.38 ± 100
[1], x2 = 0.4519	–	1035.95 ± 86
[1], x2 = 0.5032	–	1043.04 ± 70
[1], x2 = 0.5498	–	1049.9 ± 57
[1], x2 = 0.6016	–	1058.03 ± 45
[1], x2 = 0.6526	–	1066.61 ± 34
[1], x2 = 0.701	–	1075.35 ± 26
[1], x2 = 0.7502	–	1084.93 ± 18
[1], x2 = 0.8009	–	1095.6 ± 12
[1], x2 = 0.851	–	1107.21 ± 7.6
[1], x2 = 0.9003	–	1119.7 ± 4.1
[1], x2 = 0.9483	–	1133.01 ± 1.7
[2], x2 = 0.079	-0.0579 ± 0.00146	–
[2], x2 = 0.117	-0.0778 ± 0.0016	–
[2], x2 = 0.154	-0.102 ± 0.00167	–
[2], x2 = 0.19	-0.121 ± 0.00153	–
[2], x2 = 0.256	-0.146 ± 0.0016	–
[2], x2 = 0.317	-0.167 ± 0.00167	–
[2], x2 = 0.346	-0.1746 ± 0.00167	–
[2], x2 = 0.401	-0.1859 ± 0.00172	–
[2], x2 = 0.452	-0.1912 ± 0.00172	–
[2], x2 = 0.5	-0.1913 ± 0.00172	–
[2], x2 = 0.545	-0.188 ± 0.0017	–
[2], x2 = 0.606	-0.1763 ± 0.00165	–
[2], x2 = 0.645	-0.1648 ± 0.00163	–
[2], x2 = 0.698	-0.145 ± 0.00155	–
[2], x2 = 0.746	-0.123 ± 0.00151	–
[2], x2 = 0.805	-0.0932 ± 0.00143	–
[2], x2 = 0.859	-0.0635 ± 0.00136	–
[2], x2 = 0.907	-0.0371 ± 0.00122	–
[2], x2 = 0.951	-0.0164 ± 0.0011	–
